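Five compound concentrations were applied to cells in 96-well plates for 48 hours; endpoints were derived by simple linear interpolation of the resulting dose-response curve. The concentration for 50% growth inhibition is given as GI50.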 Activity calls are given as the source filed them. No stated cut-off is given here; in the data, active = GI50 up to about 1.1 µM and inactive = higher. Bounds are passed on as bounds.

Among the test systems are OVCAR-3; SK-MEL-28; CCRF-CEM; HL-60; SR; RXF 393; HCC 2998; UO-31; SF-539; NCI-H226; Malme-3M; TK-10; SK-MEL-5; SK-OV-3.
What all share (test): NCI-60 cell line screen, 48 h

With `COC(=O)C(=O)C(C(C)=O)C(=O)NCc1ccccc1` (stereo not drawn), the GI50 in the experiment with OVCAR-3 was > 100 µM (inactive); in the experiment on SK-MEL-28, > 100 µM (inactive); with CCRF-CEM it was 83.2 µM (inactive); in the experiment with HL-60, > 100 µM (inactive); in the experiment on SR, > 100 µM (inactive); in the experiment with RXF 393, > 100 µM (inactive). Further, the GI50 in the experiment on HCC 2998, in the experiment with UO-31, in the experiment with SF-539, in the experiment on NCI-H226, in the experiment with Malme-3M and in the experiment on TK-10 was > 100 µM (inactive) in each case. In the experiment on SK-MEL-5, the GI50 is > 100 µM (inactive).

In the case of `COc1ccc(C(=O)Cc2c(C(=O)c3ccccc3)c3ccccc3n2C(=O)c2ccccc2)cc1`, the GI50 was 37.7 µM (inactive) with OVCAR-3; > 100 µM (inactive) in the experiment on SK-MEL-28; 46.6 µM (inactive) with CCRF-CEM; 38.3 µM (inactive) in the experiment with HL-60; 23.8 µM (inactive) in the experiment with SR; > 100 µM (inactive) in the experiment on HCC 2998. The GI50 was 32.9 µM (inactive) in the experiment on UO-31; > 100 µM (inactive) in the experiment on SF-539; > 100 µM (inactive) with NCI-H226; > 100 µM (inactive) with Malme-3M; > 100 µM (inactive) in the experiment on TK-10; 17.7 µM (inactive) in the experiment with SK-MEL-5.

With `Cc1cc(N(CCC#N)CCC#N)ccc1/C=C1N=C(/C=C/c2ccccc2)N(c2ccc(S(N)(=O)=O)cc2)C\1=O`, the GI50 with OVCAR-3, in the experiment with SK-MEL-28, with CCRF-CEM, in the experiment on HL-60, in the experiment with SR and with UO-31 was > 100 µM (inactive) in each case. Further, the GI50 with SK-OV-3, with SF-539, with NCI-H226, in the experiment with Malme-3M, with TK-10 and in the experiment with SK-MEL-5 was > 100 µM (inactive) each time.

Regarding `O=C(Cc1ccccc1)N/N=C(\C1=Nc2ccc([N+](=O)[O-])cc2NC1O)C(O)c1ccc([N+](=O)[O-])cc1` (stereo not drawn), the GI50 was > 100 µM (inactive) with OVCAR-3; 13.8 µM (inactive) in the experiment with CCRF-CEM; 19.9 µM (inactive) in the experiment with HL-60; > 100 µM (inactive) in the experiment on SR; > 100 µM (inactive) in the experiment on RXF 393; 99.5 µM (inactive) with HCC 2998. The GI50 is 52.8 µM (inactive) in the experiment with UO-31; > 100 µM (inactive) in the experiment on SK-OV-3; > 100 µM (inactive) in the experiment with SF-539; > 100 µM (inactive) with NCI-H226; > 100 µM (inactive) in the experiment on Malme-3M; > 100 µM (inactive) with TK-10. Further, in the experiment on SK-MEL-5, the GI50 was 68.9 µM (inactive).

Turning to `BrC1(Br)C2/C=C\CCCCC21` (stereo not drawn), the GI50 in the experiment on SK-MEL-28, in the experiment with CCRF-CEM, in the experiment with HL-60, in the experiment with SR, in the experiment on RXF 393 and with HCC 2998 was > 100 µM (inactive) throughout. The GI50 in the experiment on SF-539, in the experiment on NCI-H226, in the experiment with Malme-3M and in the experiment with TK-10 was > 100 µM (inactive) each time.

On to `Cc1c(C(=O)/C=C/c2ccco2)[n+]([O-])c2ccccc2[n+]1[O-]`, for which the GI50 was > 100 µM (inactive) in the experiment with OVCAR-3; > 100 µM (inactive) in the experiment on SK-MEL-28; 36.1 µM (inactive) in the experiment with CCRF-CEM; 42 µM (inactive) with HL-60; 55.2 µM (inactive) in the experiment on SR; > 100 µM (inactive) in the experiment on RXF 393. Moreover, the GI50 in the experiment on HCC 2998, with UO-31, in the experiment with SK-OV-3, with SF-539, in the experiment on NCI-H226 and in the experiment on Malme-3M was > 100 µM (inactive) in each case. Besides, in the experiment on TK-10, the GI50 is > 100 µM (inactive).

`Oc1cc(-c2ccccn2)nc2cccc(F)c12`: the GI50 in the experiment on OVCAR-3 is > 100 µM (inactive); in the experiment on SK-MEL-28 it was 0.644 µM (active); with CCRF-CEM it was > 100 µM (inactive); in the experiment on HL-60, > 100 µM (inactive); in the experiment on SR it was > 100 µM (inactive); in the experiment on RXF 393, > 100 µM (inactive). In addition, the GI50 in the experiment on HCC 2998 is 0.641 µM (active); in the experiment on UO-31, > 100 µM (inactive); in the experiment on SK-OV-3, > 100 µM (inactive); in the experiment on SF-539, > 100 µM (inactive); with NCI-H226, > 100 µM (inactive); in the experiment on TK-10, > 100 µM (inactive). The GI50 with SK-MEL-5 was 61.4 µM (inactive).

Regarding `Cc1ccc(Oc2ccc(C)cc2N)cc1`, the GI50 in the experiment with OVCAR-3 is 36 µM (inactive); in the experiment on SK-MEL-28, > 100 µM (inactive); with CCRF-CEM it was 41.6 µM (inactive); with HL-60, 33.9 µM (inactive); with SR, 57.9 µM (inactive); with RXF 393, 31.5 µM (inactive). Also, the GI50 in the experiment with HCC 2998 is > 100 µM (inactive); with UO-31, 34.8 µM (inactive); with SK-OV-3 it was > 100 µM (inactive); in the experiment with SF-539, > 100 µM (inactive); in the experiment with NCI-H226, 48.6 µM (inactive); with Malme-3M it was > 100 µM (inactive). In addition, the GI50 with TK-10 was > 100 µM (inactive); in the experiment with SK-MEL-5, 44.1 µM (inactive).

Take `CCCN1CC=CCC1`: the GI50 with OVCAR-3 is > 100 µM (inactive); in the experiment on SK-MEL-28 it was > 100 µM (inactive); in the experiment with CCRF-CEM, 2.09 µM (inactive); in the experiment on HL-60, > 100 µM (inactive); in the experiment on SR, > 100 µM (inactive); in the experiment on RXF 393 it was > 100 µM (inactive). In addition, the GI50 in the experiment on HCC 2998, in the experiment on UO-31, with SK-OV-3, in the experiment with SF-539, in the experiment with Malme-3M and with TK-10 was > 100 µM (inactive) throughout. The GI50 with SK-MEL-5 is > 100 µM (inactive).

Turning to `O=[N+]([O-])c1cccc(C2=NOC3C4CCC(C4)C23)c1` (stereo not drawn), the GI50 in the experiment on OVCAR-3, in the experiment with SK-MEL-28, with SR, with HCC 2998, in the experiment on UO-31 and in the experiment with SK-OV-3 was > 100 µM (inactive) throughout. In addition, the GI50 in the experiment with SF-539, in the experiment with NCI-H226, in the experiment with Malme-3M, in the experiment on TK-10 and in the experiment on SK-MEL-5 was > 100 µM (inactive) each time.

In the case of `COc1ccc2nc(-c3ccc(OCc4ccccc4)cc3)ccc2c1`, the GI50 with OVCAR-3, with SK-MEL-28, with CCRF-CEM, in the experiment on HL-60, in the experiment with SR and in the experiment with RXF 393 was > 100 µM (inactive) in each case. For the same compound, the GI50 in the experiment on HCC 2998, in the experiment on UO-31, in the experiment with SK-OV-3, in the experiment on SF-539, in the experiment with NCI-H226 and with Malme-3M was > 100 µM (inactive) throughout. In addition, the GI50 in the experiment on TK-10 and with SK-MEL-5 was > 100 µM (inactive) throughout.

For `CC1C2=CC=C(O2)C(C)(C)C2=CC=C(O2)C(C)(C)C2=CC=C(O2)C(C)(C)C2=CC=C1O2`, the GI50 with SK-MEL-28, with CCRF-CEM, in the experiment on HL-60, in the experiment with SR, in the experiment with RXF 393 and in the experiment with HCC 2998 was > 100 µM (inactive) each time. The GI50 in the experiment on SK-OV-3, in the experiment on SF-539, in the experiment with NCI-H226, in the experiment with Malme-3M and with TK-10 was > 100 µM (inactive) throughout.

For `CCc1cccc(C(C)CC)c1NC(=O)C(=O)Cc1nc2ccccc2o1` (stereo not drawn), the GI50 in the experiment on OVCAR-3, in the experiment on SK-MEL-28, in the experiment with CCRF-CEM, in the experiment with HL-60, in the experiment with RXF 393 and with HCC 2998 was > 50 µM (inactive) in each case. In addition, the GI50 was > 50 µM (inactive) in the experiment with UO-31; > 50 µM (inactive) in the experiment on SK-OV-3; > 50 µM (inactive) with SF-539; 3.82 µM (inactive) in the experiment on NCI-H226; > 50 µM (inactive) in the experiment with Malme-3M; > 50 µM (inactive) with TK-10. In addition, the GI50 with SK-MEL-5 is > 50 µM (inactive).

In the case of `COc1ccc2oc3c4c2c1CCC4CCC3=O` (stereo not drawn), the GI50 with OVCAR-3 was > 100 µM (inactive); with SK-MEL-28 it was > 100 µM (inactive); in the experiment with CCRF-CEM, > 100 µM (inactive); with HL-60 it was > 100 µM (inactive); in the experiment on SR, > 100 µM (inactive); with RXF 393, 36.1 µM (inactive). Also, the GI50 is > 100 µM (inactive) in the experiment on HCC 2998; 25.2 µM (inactive) in the experiment on UO-31; > 100 µM (inactive) in the experiment with SK-OV-3; > 100 µM (inactive) in the experiment on SF-539; > 100 µM (inactive) in the experiment on Malme-3M; 5.47 µM (inactive) with TK-10. In the experiment on SK-MEL-5, the GI50 was > 100 µM (inactive).

For `Cc1cc(Cl)ccc1NC(=O)C(=O)Cc1occc(=O)c1O`, the GI50 in the experiment on SK-MEL-28, in the experiment on CCRF-CEM, with HL-60, in the experiment on SR, in the experiment on RXF 393 and in the experiment on HCC 2998 was > 100 µM (inactive) in each case. For the same compound, the GI50 in the experiment on UO-31, in the experiment with SK-OV-3, with SF-539, in the experiment with NCI-H226, with Malme-3M and in the experiment on TK-10 was > 100 µM (inactive) throughout. The GI50 with SK-MEL-5 is > 100 µM (inactive).

(Values after ChEMBL document CHEMBL1201862, “PubChem BioAssay data set” (2004).)
